Experimental data: patent US20260137082A1 (priority 2021, published 2026)
In brackets after ≈: the same amount, converted by molar mass. Like-named read-outs stand apart in the source and are kept apart here.

Experiments:
Fusarium asiaticum = experiment: microbe, parasite or virus in culture; details: 72 h, read-out: EC50 Value
Description: The fungicidal activity of cyclobutrifluram, fludioxonil (FDL), and mixtures thereof with various weight ratios (e.g., 10:1 and 1:50) of cyclobutrifluram and FDL was tested against Fusarium asiaticum and Fusarium pseudograminearum.
Specifically, according to the results of pre-experiment, the best concentration ranges for determination of the sensitivity of pathogens to cyclobutrifluram, FDL and mixtures thereof were respectively determined, and 5-7 concentration gradients were set to make the inhibition rate at the minimum concentration close to 10% and the inhibition rate at the highest concentration close to 90%. […]
Mycelial plugs in the edge of colony were prepared by hole puncher with a diameter of 5 mm. […] After cultured in an incubator at 25° C. for three days in darkness, the diameters of every mycelial colony on PDA plates were measured twice perpendicularly and then averaged. […]
The EC50 values of each tested agent and each mixture were calculated by the linear regression analysis between the probability value of the inhibition rate and the log value of the series of concentrations. The co-toxicity coefficient (CTC) of the mixtures was calculated and evaluated according to the Sun-YP method.

Gibberella fujikuroi = experiment: microbe, parasite or virus in culture; assay type: cell-based; details: Fusarium fujikuroi, 72 h, read-out: EC50 Value
[1] = tested on: Fusarium graminearum (Gibberella zeae) strain K-6102; assay type: cell-based; details: solo fungicide, 4 days, 24° C., OD 620 nm

With `O=C(NC1CCC1c1ccc(Cl)cc1Cl)c1cccnc1C(F)(F)F` (stereo in doubt) [cyclobutrifluram, N-[(1,2 cis)-2-(2,4-dichlorophenyl)cyclobutyl]-2-(trifluoromethyl)pyridine-3-carboxamide] the EC50 (Fusarium asiaticum) was 0.0214 µg/mL (≈ 0.055 µM), the EC50 (Gibberella fujikuroi) was 0.75 µg/mL (≈ 1.93 µM) and the “Efficacy (%, n = 5)” value ([1]; 0.1 ppm) was 30.8%. The “Efficacy (%, n = 5)” value ([1]; 1 ppm) was 31.3% and the “Efficacy (%, n = 5)” value ([1]; 10 ppm) was 34.1%.
With `N#CC1=CN=CC1c1cccc2c1OC(F)(F)O2` (stereo not shown) [FDL, 4-(2,2-difluoro-benzo[1,3]dioxol-4-yl)pyrrole-3-carbonitrile] the EC50 (Fusarium asiaticum) was 0.0196 µg/mL (≈ 0.079 µM), the EC50 (Gibberella fujikuroi) was 0.173 µg/mL (≈ 0.697 µM) and the “Efficacy (%, n = 5)” value ([1]; 0.1 ppm) was 20.4%. The “Efficacy (%, n = 5)” value ([1]; 1 ppm) was 43.4% and the “Efficacy (%, n = 5)” value ([1]; 10 ppm) was 65.4%.
